The target of test [1] is T1, Tyrosine-protein phosphatase non-receptor type 11 (Homo sapiens, UniProt Q06124).
T1 sequence (Q06124 whole entry): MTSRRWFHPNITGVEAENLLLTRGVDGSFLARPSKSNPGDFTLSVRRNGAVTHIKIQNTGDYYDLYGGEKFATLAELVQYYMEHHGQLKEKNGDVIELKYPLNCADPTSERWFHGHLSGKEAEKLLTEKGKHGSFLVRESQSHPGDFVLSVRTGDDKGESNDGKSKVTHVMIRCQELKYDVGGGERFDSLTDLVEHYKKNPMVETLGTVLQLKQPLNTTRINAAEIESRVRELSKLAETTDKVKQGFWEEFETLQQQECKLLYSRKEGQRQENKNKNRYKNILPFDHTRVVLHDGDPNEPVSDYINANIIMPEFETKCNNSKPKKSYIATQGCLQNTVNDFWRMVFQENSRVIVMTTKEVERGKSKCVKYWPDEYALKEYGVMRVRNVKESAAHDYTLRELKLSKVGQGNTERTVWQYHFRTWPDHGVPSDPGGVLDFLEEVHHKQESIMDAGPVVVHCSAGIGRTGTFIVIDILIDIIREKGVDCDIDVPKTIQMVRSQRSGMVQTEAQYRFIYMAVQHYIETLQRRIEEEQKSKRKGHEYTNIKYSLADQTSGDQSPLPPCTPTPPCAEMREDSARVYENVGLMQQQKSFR
In words: Inhibition of SHP2 ( 1 to 525 residues) (unknown origin).

Test [2] addresses T2, Tyrosine-protein phosphatase non-receptor type 1 (Homo sapiens, UniProt P18031).
T2 sequence (P18031 whole entry): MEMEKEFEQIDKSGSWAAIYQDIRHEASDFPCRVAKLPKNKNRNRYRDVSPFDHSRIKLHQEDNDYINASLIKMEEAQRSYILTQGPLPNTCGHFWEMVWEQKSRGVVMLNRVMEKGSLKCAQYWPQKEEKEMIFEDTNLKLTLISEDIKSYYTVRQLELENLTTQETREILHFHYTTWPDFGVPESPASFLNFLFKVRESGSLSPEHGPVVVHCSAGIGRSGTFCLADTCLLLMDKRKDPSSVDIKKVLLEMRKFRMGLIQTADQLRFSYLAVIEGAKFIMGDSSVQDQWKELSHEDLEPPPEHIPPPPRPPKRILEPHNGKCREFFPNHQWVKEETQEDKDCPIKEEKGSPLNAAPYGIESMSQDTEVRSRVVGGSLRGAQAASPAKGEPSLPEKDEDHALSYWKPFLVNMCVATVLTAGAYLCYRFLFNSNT
Nature of the test: Inhibition of PTP1B (unknown origin).

The target of test [3] is T3, Tyrosine-protein phosphatase non-receptor type 6 (Homo sapiens, UniProt P29350). Nature of the test: Inhibition of SHP1 (unknown origin).
T3 sequence (P29350 whole entry): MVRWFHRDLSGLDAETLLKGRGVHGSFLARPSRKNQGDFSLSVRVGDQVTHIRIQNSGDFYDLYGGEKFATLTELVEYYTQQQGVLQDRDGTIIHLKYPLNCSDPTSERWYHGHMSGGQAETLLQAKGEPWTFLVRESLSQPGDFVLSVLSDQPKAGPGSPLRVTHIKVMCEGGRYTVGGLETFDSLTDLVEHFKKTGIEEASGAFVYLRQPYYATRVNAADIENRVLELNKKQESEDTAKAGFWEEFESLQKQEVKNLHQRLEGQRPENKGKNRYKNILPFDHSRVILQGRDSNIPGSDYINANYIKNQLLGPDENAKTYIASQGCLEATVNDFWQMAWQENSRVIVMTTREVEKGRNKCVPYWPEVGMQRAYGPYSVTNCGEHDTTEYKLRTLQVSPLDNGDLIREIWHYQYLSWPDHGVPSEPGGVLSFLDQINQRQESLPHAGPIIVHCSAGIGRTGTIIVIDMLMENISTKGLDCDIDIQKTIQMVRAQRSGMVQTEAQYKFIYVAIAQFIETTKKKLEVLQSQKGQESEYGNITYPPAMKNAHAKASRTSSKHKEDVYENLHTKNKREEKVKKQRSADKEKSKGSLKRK
The target in test [4] is T1, Tyrosine-protein phosphatase non-receptor type 11.
Description: Inhibition of SHP2 (unknown origin)
The target of test [5] is T2, Tyrosine-protein phosphatase non-receptor type 1. Nature of the test: Inhibition of recombinant GST-fused human PTP1B (1 to 435 residues) using DiFMUP as substrate incubated for 30 mins by fluorescence based assay.
Test [6] concerns the target T3, Tyrosine-protein phosphatase non-receptor type 6.
Description: Inhibition of recombinant GST-fused human SHP1 (205 to 597 residues) using DiFMUP as substrate incubated for 30 mins by fluorescence based assay

In turn, `COc1cccc(-c2nnc3n(Cc4ccccc4Cl)c(=O)c4ccccc4n23)c1O` registered a 50% inhibitory concentration (IC50) in test [1] of 60 µM.
`O=C1/C(=N\Nc2ccc(S(=O)(=O)O)cc2)C(c2ccc([N+](=O)[O-])cc2)=NN1c1ccccc1`: the IC50 turned out to be 19 µM in test [2] and 30 µM in test [3].
For the compound `O=C1Nc2ccc(S(=O)(=O)O)cc2/C1=N/Nc1ccccc1[N+](=O)[O-]`, 800 nM corresponded to half-maximal inhibition in test [4] (IC50).
On to `O=S(=O)(O)c1ccc2cc(/N=N/c3cc(S(=O)(=O)O)c4cccnc4c3O)ccc2c1`, for which the IC50 came to 1690 nM in test [5] and 355 nM in test [6].

In general, IC50 refers to the concentration that gives 50% inhibition.

Source of the values: ChEMBL document CHEMBL5233259, “Medicinal chemistry strategies for the development of protein tyrosine phosphatase SHP2 inhibitors and PROTAC degraders” (Eur J Med Chem, 2020).
